Data taken from ChEMBL document CHEMBL5360657, “Discovery of the TLR7/8 Antagonist MHV370 for Treatment of Systemic Autoimmune Diseases” (ACS Med Chem Lett, 2023).

Experiments:
[1] = biological target: T1, Nuclear receptor subfamily 1 group I member 2 (Homo sapiens, UniProt O75469); assay: Induction of PXR (unknown origin) relative to control
T1 sequence (O75469 whole entry): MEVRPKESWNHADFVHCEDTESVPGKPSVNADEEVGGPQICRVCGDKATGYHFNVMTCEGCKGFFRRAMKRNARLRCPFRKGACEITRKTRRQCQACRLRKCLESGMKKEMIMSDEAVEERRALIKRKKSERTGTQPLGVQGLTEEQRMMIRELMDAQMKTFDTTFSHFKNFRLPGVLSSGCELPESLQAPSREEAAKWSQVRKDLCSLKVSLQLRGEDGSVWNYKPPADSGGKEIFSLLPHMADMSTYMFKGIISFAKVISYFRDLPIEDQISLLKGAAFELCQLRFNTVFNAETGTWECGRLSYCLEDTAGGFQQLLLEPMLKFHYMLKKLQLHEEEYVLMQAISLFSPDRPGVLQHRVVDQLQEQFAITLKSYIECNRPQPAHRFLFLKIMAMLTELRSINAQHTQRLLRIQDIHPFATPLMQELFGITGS

[2] = biological target: Toll-like receptor 7 (Mus musculus) (UniProt P58681); assay: In vivo antagonist activity against TLR7 in po dosed mouse assessed as suppression of IFN alpha level measured at 3 hrs by LC-MS/MS analysis; details: dose 1-30 mg/kg
[3] = biological target: Toll-like receptor 7 (Mus musculus) (UniProt P58681); assay: In vivo antagonist activity against TLR7 in mouse assessed as suppression of IFN alpha level at 1 mg/kg, po measured at 3 hrs by LC-MS/MS analysis
Toll-like receptor 8 = biological target: T2, Toll-like receptor 8 (Homo sapiens, UniProt Q9NR97); assay: Antagonist activity at TLR8 in human Whole blood cell […] assessed as reduction in IL-6 level measured after 30 mins; assay type: tissue-based
T2 sequence (Q9NR97 whole entry): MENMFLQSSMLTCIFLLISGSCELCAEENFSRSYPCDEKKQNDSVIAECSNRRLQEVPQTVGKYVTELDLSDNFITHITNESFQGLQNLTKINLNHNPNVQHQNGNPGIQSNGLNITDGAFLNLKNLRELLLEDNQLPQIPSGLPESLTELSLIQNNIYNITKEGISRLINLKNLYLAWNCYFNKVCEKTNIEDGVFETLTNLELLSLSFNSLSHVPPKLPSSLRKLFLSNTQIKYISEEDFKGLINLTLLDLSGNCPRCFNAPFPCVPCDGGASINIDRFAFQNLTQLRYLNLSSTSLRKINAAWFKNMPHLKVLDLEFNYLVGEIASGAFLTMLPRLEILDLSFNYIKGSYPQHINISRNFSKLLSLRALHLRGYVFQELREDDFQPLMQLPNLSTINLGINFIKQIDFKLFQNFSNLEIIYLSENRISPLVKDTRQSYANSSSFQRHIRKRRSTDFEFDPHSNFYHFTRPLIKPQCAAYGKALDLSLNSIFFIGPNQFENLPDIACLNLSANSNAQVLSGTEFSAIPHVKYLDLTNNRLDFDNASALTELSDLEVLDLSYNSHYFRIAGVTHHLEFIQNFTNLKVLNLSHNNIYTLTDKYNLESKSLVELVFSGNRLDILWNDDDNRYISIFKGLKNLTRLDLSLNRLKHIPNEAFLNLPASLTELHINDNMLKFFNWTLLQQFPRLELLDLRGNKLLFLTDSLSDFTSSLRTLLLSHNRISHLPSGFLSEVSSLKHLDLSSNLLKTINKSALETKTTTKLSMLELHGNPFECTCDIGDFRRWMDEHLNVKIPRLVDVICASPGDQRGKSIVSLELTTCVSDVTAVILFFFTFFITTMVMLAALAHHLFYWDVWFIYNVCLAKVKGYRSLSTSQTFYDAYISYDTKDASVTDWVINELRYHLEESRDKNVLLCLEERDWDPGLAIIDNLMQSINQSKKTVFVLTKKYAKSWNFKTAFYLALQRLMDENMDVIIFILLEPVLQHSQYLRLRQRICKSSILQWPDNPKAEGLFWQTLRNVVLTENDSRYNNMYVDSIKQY

Cc1cc(N2CCc3c(c(C)nn3CC34CCC(N)(CC3)CC4)C2)c2cnn(C)c2n1
Activity [1]: 7.9%

Cc1cc(N2CCc3c(c(C)nn3CC34CCC(NC(=O)[C@@H]5COCCN5)(CC3)CC4)C2)c2cnn(C)c2n1 [MHV-370]
Activity [2]: Dose-Dependent Effect
Activity [3]: 25 ng/mL
IC50 (Toll-like receptor 8): 0.074 µM
